Test results from PubChem BioAssay (NCI).
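In this assay, cells in 96-well plates receive the compound at five concentrations for 48 hours. Endpoints are linearly interpolated between the surrounding concentrations. GI50: concentration for 50% inhibition of growth. At the TGI there is no net growth.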

How the values were obtained:
Test in all cases: NCI-60 cell line screen, 48 h
[1] = test system: 786-0 renal
[2] = test system: A498 renal
[3] = test system: A549 NSCLC
[4] = test system: ACHN renal
[5] = test system: BT-549 breast
[6] = test system: CAKI-1 renal
[7] = test system: CCRF-CEM leukemia
[8] = test system: COLO 205 colon
[9] = test system: DU-145 prostate
[10] = test system: EKVX NSCLC
[11] = test system: HCC-2998 colon
[12] = test system: HCT-116 colon
[13] = test system: HCT-15 colon
[14] = test system: HL-60(TB) leukemia
[15] = test system: HOP-62 NSCLC
[16] = test system: HOP-92 NSCLC
[17] = test system: HS 578T breast
[18] = test system: HT29 colon
[19] = test system: IGROV1 ovarian
[20] = test system: K-562 leukemia
[21] = test system: KM12 colon
[22] = test system: LOX IMVI melanoma
[23] = test system: M14 melanoma
[24] = test system: MALME-3M melanoma
[25] = test system: MCF7 breast
[26] = test system: MDA-MB-231 breast
[27] = test system: MDA-MB-435
[28] = test system: MOLT-4 leukemia
[29] = test system: NCI-H226 lung
[30] = test system: NCI-H23 lung
[31] = test system: NCI-H460 lung
[32] = test system: NCI-H522 lung
[33] = test system: NCI/ADR-RES ovarian
[34] = test system: OVCAR-3 ovarian
[35] = test system: OVCAR-4 ovarian
[36] = test system: OVCAR-5 ovarian
[37] = test system: OVCAR-8 ovarian
[38] = test system: PC-3 prostate
[39] = test system: RPMI-8226 leukemia
[40] = test system: RXF 393 renal
[41] = test system: SF-268 CNS
[42] = test system: SF-295 CNS
[43] = test system: SF-539 CNS
[44] = test system: SK-MEL-2 melanoma
[45] = test system: SK-MEL-28 melanoma
[46] = test system: SK-MEL-5 melanoma
[47] = test system: SK-OV-3 ovarian
[48] = test system: SN12C renal
[49] = test system: SNB-19 CNS
[50] = test system: SNB-75 CNS
[51] = test system: SR leukemia
[52] = test system: SW-620 colon
[53] = test system: T-47D breast
[54] = test system: TK-10 renal
[55] = test system: U251 CNS
[56] = test system: UACC-257 melanoma
[57] = test system: UACC-62 melanoma
[58] = test system: UO-31 renal

Q: `O=C(NC1CCC(Br)CC1)C1CCCC(S(=O)(=O)NC2CCCCC2)C1` (stereo unspecified) was tested. Which GI50 [1] did it give?
A: Its GI50 is 19.3 µM.

Q: And the TGI [1]?
A: The TGI was 55 µM.

Q: What about the GI50 [2] of the same compound?
A: Its GI50 is 3.7 µM.

Q: And the TGI [2]?
A: Its TGI is 21.7 µM.

Q: And the GI50 [3]?
A: The GI50 was 9.81 µM.

Q: And the TGI [3]?
A: The TGI was 44.8 µM.

Q: What about the GI50 [4] of the same compound?
A: Its GI50 is 9.9 µM.

Q: What about the TGI [4] of the same compound?
A: The TGI was 39.4 µM.

Q: What about the GI50 [5] of the same compound?
A: Its GI50 is 8.34 µM.

Q: What about the TGI [5] of the same compound?
A: Its TGI is 35.4 µM.

Q: And the GI50 [6]?
A: The GI50 was 10.2 µM.

Q: And the TGI [6]?
A: The TGI was 42.5 µM.

Q: And the GI50 [7]?
A: The GI50 was 0.233 µM.

Q: And the TGI [7]?
A: Its TGI is 26.3 µM.

Q: And the GI50 [8]?
A: Its GI50 is 14 µM.

Q: And the TGI [8]?
A: Its TGI is 51.5 µM.

Q: What about the GI50 [9] of the same compound?
A: Its GI50 is 16.1 µM.

Q: What about the TGI [9] of the same compound?
A: The TGI was 47.7 µM.

Q: And the GI50 [10]?
A: The GI50 was 7.81 µM.

Q: And the TGI [10]?
A: The TGI was 32.9 µM.

Q: What about the GI50 [11] of the same compound?
A: The GI50 was 13 µM.

Q: And the TGI [11]?
A: Its TGI is 47.3 µM.

Q: And the GI50 [12]?
A: Its GI50 is 9.15 µM.

Q: And the TGI [12]?
A: Its TGI is 38 µM.

Q: What about the GI50 [13] of the same compound?
A: Its GI50 is 11.5 µM.

Q: And the TGI [13]?
A: The TGI was 46.9 µM.

Q: And the GI50 [14]?
A: Its GI50 is 8.6 µM.

Q: And the TGI [14]?
A: Its TGI is 82.2 µM.

Q: What about the GI50 [15] of the same compound?
A: Its GI50 is 24 µM.

Q: What about the TGI [15] of the same compound?
A: The TGI was 59.8 µM.

Q: And the GI50 [16]?
A: Its GI50 is 4.7 µM.

Q: What about the TGI [16] of the same compound?
A: Its TGI is 23 µM.

Q: And the GI50 [17]?
A: Its GI50 is 16.8 µM.

Q: What about the TGI [17] of the same compound?
A: Its TGI is 87.2 µM.

Q: And the GI50 [18]?
A: The GI50 was 17.7 µM.

Q: And the TGI [18]?
A: The TGI was 55 µM.

Q: And the GI50 [19]?
A: Its GI50 is 9.78 µM.

Q: What about the TGI [19] of the same compound?
A: Its TGI is 46 µM.

Q: What about the GI50 [20] of the same compound?
A: Its GI50 is 7.52 µM.

Q: And the TGI [20]?
A: The TGI was 250 µM.

Q: And the GI50 [21]?
A: Its GI50 is 13.3 µM.

Q: What about the TGI [21] of the same compound?
A: The TGI was 47.8 µM.

Q: What about the GI50 [22] of the same compound?
A: Its GI50 is 10.7 µM.

Q: And the TGI [22]?
A: The TGI was 40.4 µM.

Q: And the GI50 [23]?
A: Its GI50 is 9.42 µM.

Q: And the TGI [23]?
A: Its TGI is 39.6 µM.

Q: And the GI50 [24]?
A: Its GI50 is 6.47 µM.

Q: And the TGI [24]?
A: The TGI was 39.3 µM.

Q: And the GI50 [25]?
A: Its GI50 is 9.31 µM.

Q: And the TGI [25]?
A: The TGI was 63.8 µM.

Q: And the GI50 [26]?
A: The GI50 was 13.5 µM.

Q: And the TGI [26]?
A: The TGI was 55.8 µM.

Q: And the GI50 [27]?
A: Its GI50 is 10.6 µM.

Q: What about the TGI [27] of the same compound?
A: Its TGI is 42.3 µM.

Q: And the GI50 [28]?
A: Its GI50 is 8.91 µM.

Q: What about the TGI [28] of the same compound?
A: Its TGI is 79.3 µM.

Q: What about the GI50 [29] of the same compound?
A: The GI50 was 12 µM.

Q: And the TGI [29]?
A: Its TGI is 109 µM.

Q: What about the GI50 [30] of the same compound?
A: Its GI50 is 7.88 µM.

Q: What about the TGI [30] of the same compound?
A: The TGI was 35.3 µM.

Q: And the GI50 [31]?
A: Its GI50 is 11.4 µM.

Q: And the TGI [31]?
A: The TGI was 48 µM.

Q: And the GI50 [32]?
A: Its GI50 is 8 µM.

Q: And the TGI [32]?
A: The TGI was 38.1 µM.

Q: What about the GI50 [33] of the same compound?
A: The GI50 was 8.36 µM.

Q: And the TGI [33]?
A: Its TGI is 37.7 µM.

Q: And the GI50 [34]?
A: Its GI50 is 9.83 µM.

Q: And the TGI [34]?
A: The TGI was 40 µM.

Q: And the GI50 [35]?
A: The GI50 was 8.19 µM.

Q: What about the TGI [35] of the same compound?
A: The TGI was 44.1 µM.

Q: And the GI50 [36]?
A: The GI50 was 14.2 µM.

Q: And the TGI [36]?
A: The TGI was 48.8 µM.

Q: What about the GI50 [37] of the same compound?
A: Its GI50 is 12.8 µM.

Q: What about the TGI [37] of the same compound?
A: The TGI was 59 µM.

Q: And the GI50 [38]?
A: Its GI50 is 8.47 µM.

Q: And the TGI [38]?
A: Its TGI is 37.1 µM.

Q: And the GI50 [39]?
A: The GI50 was 9.79 µM.

Q: And the TGI [39]?
A: Its TGI is 58 µM.

Q: And the GI50 [40]?
A: The GI50 was 11.8 µM.

Q: What about the TGI [40] of the same compound?
A: The TGI was 48.1 µM.

Q: And the GI50 [41]?
A: Its GI50 is 12.6 µM.

Q: What about the TGI [41] of the same compound?
A: The TGI was 56 µM.

Q: And the GI50 [42]?
A: Its GI50 is 8.04 µM.

Q: And the TGI [42]?
A: The TGI was 28.4 µM.

Q: And the GI50 [43]?
A: Its GI50 is 13.5 µM.

Q: And the TGI [43]?
A: Its TGI is 46.3 µM.

Q: What about the GI50 [44] of the same compound?
A: The GI50 was 11.5 µM.

Q: And the TGI [44]?
A: The TGI was 46.4 µM.

Q: And the GI50 [45]?
A: The GI50 was 9.22 µM.

Q: And the TGI [45]?
A: Its TGI is 36.8 µM.

Q: And the GI50 [46]?
A: The GI50 was 4.96 µM.

Q: And the TGI [46]?
A: The TGI was 11.6 µM.

Q: What about the GI50 [47] of the same compound?
A: The GI50 was 14.1 µM.

Q: What about the TGI [47] of the same compound?
A: Its TGI is 47.3 µM.

Q: And the GI50 [48]?
A: Its GI50 is 9.29 µM.

Q: And the TGI [48]?
A: Its TGI is 39.8 µM.

Q: And the GI50 [49]?
A: Its GI50 is 11.1 µM.

Q: What about the TGI [49] of the same compound?
A: Its TGI is 42.7 µM.

Q: And the GI50 [50]?
A: The GI50 was 17 µM.

Q: What about the TGI [50] of the same compound?
A: Its TGI is 69.5 µM.

Q: And the GI50 [51]?
A: Its GI50 is 18.8 µM.

Q: And the TGI [51]?
A: The TGI was 129 µM.

Q: And the GI50 [52]?
A: Its GI50 is 13.9 µM.

Q: What about the TGI [52] of the same compound?
A: Its TGI is 53.7 µM.

Q: What about the GI50 [53] of the same compound?
A: The GI50 was 6.05 µM.

Q: And the TGI [53]?
A: Its TGI is 37 µM.

Q: And the GI50 [54]?
A: The GI50 was 15 µM.

Q: What about the TGI [54] of the same compound?
A: Its TGI is 49.9 µM.

Q: What about the GI50 [55] of the same compound?
A: Its GI50 is 10.9 µM.

Q: And the TGI [55]?
A: The TGI was 43 µM.

Q: And the GI50 [56]?
A: The GI50 was 9.32 µM.

Q: And the TGI [56]?
A: The TGI was 38.4 µM.

Q: What about the GI50 [57] of the same compound?
A: The GI50 was 7.38 µM.

Q: And the TGI [57]?
A: Its TGI is 35.3 µM.

Q: What about the GI50 [58] of the same compound?
A: The GI50 was 6.26 µM.

Q: And the TGI [58]?
A: Its TGI is 33.1 µM.
